From ChEMBL document CHEMBL4680330, “Soloxolone methyl, as a 18βH-glycyrrhetinic acid derivate, may result in endoplasmic reticulum stress to induce apoptosis in breast cancer cells” (Bioorg Med Chem, 2021)
Active and inactive are the calls of the source. No cut-off for these calls is given here.

Key:
[1] = tested on: MCF7; assay: Induction of apoptosis in human MCF7 cells assessed as cytokeratin 18 by measuring increase in M-30 level at 10 uM incubated for 48 hrs by ELISA; format: functional, cell-based
[2] = tested on: MDA-MB-231; assay: Induction of cell death in human MDA-MB-231 cells assessed as downregulation of RIPK gene at 10 uM measured after 48 hrs by RT-PCR analysis; format: functional, cell-based
[3] = tested on: MDA-MB-231; assay: Induction of apoptosis in human MDA-MB-231 cells assessed as cleaved pro-caspase 3 level at 10 uM incubated for 24 hrs by Western blot analysis (reference value: 1); format: functional
[4] = tested on: MDA-MB-231; assay: Induction of endoplasmic reticulum stress in human MDA-MB-231 cells assessed as CHOP expression at 10 uM incubated for 24 hrs by Western blot analysis (reference value: 1); format: functional
[5] = tested on: MDA-MB-231; assay: Induction of apoptosis in human MDA-MB-231 cells assessed as pro-caspase 8 level at 10 uM incubated for 24 hrs by Western blot analysis (reference value: 1); format: functional
[6] = Induction of caspase 3/7 activity in human MDA-MB-231 cells assessed as induction of apoptosis by measuring necrotic cells at 10 uM incubated for 24 hrs by flow cytometry analysis (reference value: 0.85 %); format: functional
[7] = tested on: MCF7; assay: Induction of cell death in human MCF7 cells assessed as downregulation of RIPK gene at 10 uM incubated for 48 hrs by RT-PCR analysis; format: functional, cell-based
[8] = tested on: MCF7; assay: Induction of apoptosis in human MCF7 cells assessed as cytokeratin 18 by measuring increase in M-30 level at 10 uM incubated for 24 hrs by ELISA; format: functional, cell-based
[9] = Induction of caspase 3/7 activity in human MCF7 cells assessed as induction of apoptosis by measuring viable cells at 10 uM incubated for 24 hrs by flow cytometry analysis (reference value: 73.10 %); format: functional
[10] = Induction of caspase 3/7 activity in human MCF7 cells assessed as induction of apoptosis by measuring early apoptotic cells at 10 uM incubated for 24 hrs by flow cytometry analysis (reference value: 0.70 %); format: functional
[11] = tested on: MCF7; assay: Induction of apoptosis in human MCF7 cells assessed as cleaved PARP level at 10 uM incubated for 24 hrs by Western blot analysis (reference value: 1); format: functional
[12] = tested on: MDA-MB-231; assay: Induction of apoptosis in human MDA-MB-231 cells assessed as PARP level at 10 uM incubated for 24 hrs by Western blot analysis (reference value: 1); format: functional
[13] = tested on: MCF7; assay: Induction of cell death in human MCF7 cells assessed as upregulation of BECN1 gene at 10 uM measured after 48 hrs by RT-PCR analysis; format: functional, cell-based
[14] = tested on: MDA-MB-231; assay: Induction of cell death in human MDA-MB-231 cells assessed as downregulation of PARP gene at 10 uM measured after 48 hrs by RT-PCR analysis; format: functional, cell-based
[15] = tested on: MCF7; assay: Induction of ROS production in human MCF7 cells at 10 uM incubated for 24 hrs by flow cytometry analysis; format: functional, cell-based
[16] = Induction of caspase 3/7 activity in human MDA-MB-231 cells assessed as induction of apoptosis by measuring early apoptotic cells at 10 uM incubated for 24 hrs by flow cytometry analysis (reference value: 0.35 %); format: functional
[17] = tested on: MCF7; assay: Induction of endoplasmic reticulum stress in human MCF7 cells assessed as CHOP expression at 10 uM incubated for 24 hrs by Western blot analysis (reference value: 1); format: functional
[18] = tested on: MDA-MB-231; assay: Induction of apoptosis in human MDA-MB-231 cells assessed as necrotic cells at 10 uM incubated for 24 hrs by annexin V-FITC and PI staining based flow cytometry analysis (reference value: 0.95 %); format: functional
[19] = tested on: MDA-MB-231; assay: Induction of ROS production in human MDA-MB-231 cells at 10 uM incubated for 24 hrs by flow cytometry analysis relative to control; format: functional
[20] = tested on: MDA-MB-231; assay: Induction of late apoptosis in human MDA-MB-231 cells assessed as increase in PI […] at 10 uM by Hoechst 33342 and PI staining based fluorescence microscopic analysis; format: functional, cell-based; details: TDE = time-dependent effect
[21] = tested on: MCF7; assay: Induction of cell death in human MCF7 cells assessed as downregulation of PARP gene at 10 uM incubated for 48 hrs by RT-PCR analysis; format: functional, cell-based
[22] = tested on: MCF7; assay: Induction of cell death in human MCF7 cells assessed as upregulation of TNFRSF10B gene at 10 uM incubated for 24 hrs by RT-PCR analysis; format: functional, cell-based
[23] = Induction of caspase 3/7 activity in human MDA-MB-231 cells assessed as induction of apoptosis by measuring late apoptotic cells at 10 uM incubated for 24 hrs by flow cytometry analysis (reference value: 1.55 %); format: functional
[24] = tested on: MCF7; assay: Induction of late apoptosis in human MCF7 cells assessed as increase in PI […] at 10 uM by Hoechst 33342 and PI staining based fluorescence microscopic analysis; format: functional, cell-based; details: TDE = time-dependent effect
[25] = tested on: MCF7; assay: Cytotoxicity against human MCF7 cells assessed as reduction in cell viability incubated for 48 hrs by ATP based luminometry; format: functional; details: MCF7, 48 h
[26] = tested on: MCF7; assay: Induction of early apoptosis in human MCF7 cells assessed as increase in pycnotic nuclei at 10 uM incubated for 24 hrs by Hoechst 33342 and PI staining based fluorescence microscopic analysis; format: functional, cell-based
[27] = tested on: MDA-MB-231; assay: Induction of early apoptosis in human MDA-MB-231 cells assessed as increase in rate of formation of pycnotic nuclei at 10 uM incubated for 24 hrs by Hoechst 33342 and PI staining based fluorescence microscopic analysis; format: functional, cell-based
[28] = tested on: MCF7; assay: Cytotoxicity against human MCF7 cells assessed as reduction in cell viability incubated for 24 hrs by ATP based luminometry; format: functional; details: MCF7, 24 h
[29] = tested on: MCF7; assay: Induction of apoptosis in human MCF7 cells assessed as late apoptotic cells at 10 uM incubated for 24 hrs by annexin V-FITC and PI staining based flow cytometry analysis (reference value: 14.60 %); format: functional
[30] = tested on: MCF7; assay: Induction of cell death in human MCF7 cells assessed as downregulation of MLKL gene at 10 uM incubated for 48 hrs by RT-PCR analysis; format: functional, cell-based
[31] = tested on: MDA-MB-231; assay: Cytotoxicity against human MDA-MB-231 cells assessed as reduction in cell viability incubated for 48 hrs by ATP based luminometry; format: functional; details: MDA-MB-231, 48 h

With COC(=O)[C@@]1(C)CC[C@]2(C)CC[C@]3(C)[C@H](C(=O)C=C4[C@@]5(C)C=C(C#N)C(=O)C(C)(C)[C@@H]5CC[C@]43C)[C@@H]2C1 as the compound, how does the Activity [1] read?
The Activity was “Active”.

What about the Activity [2] of the same compound?
Its Activity is “inactive”.

And the “fold change (FC)” value [3]?
The value was 12.7.

What about the “fold change (FC)” value [4] of the same compound?
Its value is 6.

And the “fold change (FC)” value [5]?
Its value is 2.1.

And the Activity [6]?
The Activity was 0.5%.

What about the Activity [7] of the same compound?
Its Activity is “Active”.

What about the Activity [8] of the same compound?
Its Activity is “inactive”.

And the Activity [9]?
The Activity was 60.2%.

What about the Activity [10] of the same compound?
The Activity was 0.55%.

What about the “fold change (FC)” value [11] of the same compound?
The value was 4.5.

And the “fold change (FC)” value [12]?
The value was 0.6.

And the Activity [13]?
The Activity was “inactive”.

And the Activity [14]?
Its Activity is “inactive”.

What about the Activity [15] of the same compound?
The Activity was “inactive”.

And the Activity [16]?
The Activity was 12.75%.

What about the “fold change (FC)” value [17] of the same compound?
Its value is 0.3.

And the Activity [18]?
The Activity was 2.25%.

What about the Activity [19] of the same compound?
Its Activity is 49.6%.

And the Activity [20]?
Its Activity is “Tde”.

And the Activity [21]?
The Activity was “Active”.

And the Activity [22]?
Its Activity is “Active”.

What about the Activity [23] of the same compound?
Its Activity is 76.4%.

What about the Activity [24] of the same compound?
Its Activity is “Tde”.

What about the IC50 [25] of the same compound?
The IC50 was 4.22 µM.

And the Activity [26]?
The Activity was “Active”.

What about the Activity [27] of the same compound?
Its Activity is “Active”.

What about the IC50 [28] of the same compound?
The IC50 was 11.7 µM.

And the Activity [29]?
Its Activity is 18.35%.

What about the Activity [30] of the same compound?
The Activity was “Active”.

And the IC50 [31]?
The IC50 was 5.97 µM.
